One block for each molecule: values may come before it. Active and inactive are the calls of the source. The calls are words filed in the database; no cut-off is given here.
How the values were obtained:
[1] = target: T1, Tissue alpha-L-fucosidase (Homo sapiens, UniProt P04066); assay: Inhibitory concentration against alpha-L-Fucosidase of human placenta
T1 sequence (P04066 whole entry): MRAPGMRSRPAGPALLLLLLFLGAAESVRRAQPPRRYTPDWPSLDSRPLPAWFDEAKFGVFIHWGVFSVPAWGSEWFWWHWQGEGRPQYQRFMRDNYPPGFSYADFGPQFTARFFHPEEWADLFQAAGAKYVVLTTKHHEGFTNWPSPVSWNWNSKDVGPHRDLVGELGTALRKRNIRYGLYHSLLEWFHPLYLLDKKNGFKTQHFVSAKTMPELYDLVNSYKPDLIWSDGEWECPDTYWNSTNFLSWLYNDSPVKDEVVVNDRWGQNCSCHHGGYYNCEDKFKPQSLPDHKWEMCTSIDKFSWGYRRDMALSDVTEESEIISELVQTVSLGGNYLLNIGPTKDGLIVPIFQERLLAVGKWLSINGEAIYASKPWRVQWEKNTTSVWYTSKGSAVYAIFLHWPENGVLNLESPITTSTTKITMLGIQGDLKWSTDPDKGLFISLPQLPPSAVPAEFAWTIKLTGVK

[2] = tested on: Beta-N-acetylglucosaminidase (Bos taurus); assay: Inhibitory activity against Beta-N-acetylglucosaminidase of bovine epididymis A at 1 mM; No inhibition
[3] = tested on: isomaltase (Saccharomyces cerevisiae); assay: Inhibitory activity against isomaltase of baker yeast at 1 mM; No inhibition
[4] = target: T2, Beta-galactosidase (Bos taurus) (UniProt Q58D55); assay: Percent inhibition against Beta-D-galactosidase of bovine liver at 1 mM
T2 sequence (whole entry): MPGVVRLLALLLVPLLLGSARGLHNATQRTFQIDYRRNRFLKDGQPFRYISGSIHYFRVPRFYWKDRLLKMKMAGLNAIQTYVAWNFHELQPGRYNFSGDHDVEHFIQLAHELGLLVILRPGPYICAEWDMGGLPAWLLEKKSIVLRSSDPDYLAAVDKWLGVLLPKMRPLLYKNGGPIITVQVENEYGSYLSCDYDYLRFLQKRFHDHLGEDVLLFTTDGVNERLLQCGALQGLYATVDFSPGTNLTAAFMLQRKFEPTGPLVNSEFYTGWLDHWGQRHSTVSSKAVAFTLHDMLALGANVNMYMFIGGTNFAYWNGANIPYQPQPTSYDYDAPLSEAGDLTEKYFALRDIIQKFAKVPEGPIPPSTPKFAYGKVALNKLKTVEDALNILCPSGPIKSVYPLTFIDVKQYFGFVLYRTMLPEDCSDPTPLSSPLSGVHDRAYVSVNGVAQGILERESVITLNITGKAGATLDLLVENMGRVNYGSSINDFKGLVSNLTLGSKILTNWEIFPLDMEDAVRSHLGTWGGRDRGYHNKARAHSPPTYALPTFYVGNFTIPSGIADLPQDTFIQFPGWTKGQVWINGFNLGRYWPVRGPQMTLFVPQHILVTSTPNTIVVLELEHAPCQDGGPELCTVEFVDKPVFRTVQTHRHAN

[5] = tested on: Beta-N-acetylglucosaminidase (Bos taurus); assay: Inhibitory activity against Beta-N-acetylglucosaminidase of bovine epididymis B at 1 mM; No inhibition
Canavalia ensiformis [6] = assay: Percent inhibition against Alpha-mannosidase of Jack bean at 1 mM
maltase (Oryza sativa) = assay: Inhibitory activity against maltase of rice at 1 mM; No inhibition
Helix pomatia = assay: Inhibitory activity against Beta-mannosidase of Helix pomatia at 1 mM; No inhibition
Prunus dulcis [7] = assay: Inhibitory activity against Beta-glucosidase of almonds at 1 mM; No inhibition
[8] = target: Beta-galactosidase (Escherichia coli) (UniProt Q8VNN2); assay: Inhibitory activity against Beta-D-galactosidase of Escherichia coli at 1 mM; No inhibition
Beta-galactosidase (Escherichia coli), sequence (Q8VNN2 whole entry, looked up): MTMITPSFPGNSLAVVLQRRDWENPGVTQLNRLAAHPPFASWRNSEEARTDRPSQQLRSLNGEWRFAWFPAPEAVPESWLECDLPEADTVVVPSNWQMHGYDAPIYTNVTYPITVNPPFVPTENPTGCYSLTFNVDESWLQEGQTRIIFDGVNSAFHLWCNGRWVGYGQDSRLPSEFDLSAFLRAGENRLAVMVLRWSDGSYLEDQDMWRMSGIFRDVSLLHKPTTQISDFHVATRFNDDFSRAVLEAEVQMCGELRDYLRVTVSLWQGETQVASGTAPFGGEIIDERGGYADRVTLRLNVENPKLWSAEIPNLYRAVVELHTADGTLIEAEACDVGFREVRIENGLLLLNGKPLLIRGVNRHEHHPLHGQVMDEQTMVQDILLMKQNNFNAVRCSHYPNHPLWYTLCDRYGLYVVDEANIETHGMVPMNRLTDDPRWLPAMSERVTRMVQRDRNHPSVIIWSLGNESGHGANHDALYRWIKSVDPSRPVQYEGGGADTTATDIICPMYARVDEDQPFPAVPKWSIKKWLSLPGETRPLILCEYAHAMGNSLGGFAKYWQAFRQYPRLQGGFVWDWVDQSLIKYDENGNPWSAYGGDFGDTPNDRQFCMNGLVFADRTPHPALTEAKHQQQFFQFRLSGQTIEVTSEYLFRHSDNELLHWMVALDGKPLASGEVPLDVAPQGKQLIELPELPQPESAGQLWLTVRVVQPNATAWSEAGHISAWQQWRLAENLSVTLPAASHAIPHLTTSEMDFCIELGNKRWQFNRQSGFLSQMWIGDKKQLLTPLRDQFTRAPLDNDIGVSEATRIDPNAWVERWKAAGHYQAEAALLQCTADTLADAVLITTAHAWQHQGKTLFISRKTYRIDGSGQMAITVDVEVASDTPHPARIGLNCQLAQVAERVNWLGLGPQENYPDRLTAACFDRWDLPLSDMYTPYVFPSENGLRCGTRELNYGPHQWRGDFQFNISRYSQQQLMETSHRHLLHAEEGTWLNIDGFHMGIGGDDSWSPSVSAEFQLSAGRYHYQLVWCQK

Aspergillus niger = assay: Inhibitory activity against Alpha-galactosidase of Aspergillus niger at 1 mM; No inhibition
Coffea arabica = assay: Percent inhibition against Alpha-galactosidase of coffee bean at 1 mM
Prunus dulcis [9] = assay: Percent inhibition against Alpha-mannosidase of Almonds at 1 mM
[10] = target: T1, Tissue alpha-L-fucosidase; assay: Inhibitory activity against alpha-L-Fucosidase of human placenta expressed as Ki
[11] = target: Glucoamylase (Aspergillus niger) (UniProt P69328); assay: Percent inhibition against Amyloglucosidase of Aspergillus niger at 1 mM
Glucoamylase (Aspergillus niger), sequence (P69328 whole entry): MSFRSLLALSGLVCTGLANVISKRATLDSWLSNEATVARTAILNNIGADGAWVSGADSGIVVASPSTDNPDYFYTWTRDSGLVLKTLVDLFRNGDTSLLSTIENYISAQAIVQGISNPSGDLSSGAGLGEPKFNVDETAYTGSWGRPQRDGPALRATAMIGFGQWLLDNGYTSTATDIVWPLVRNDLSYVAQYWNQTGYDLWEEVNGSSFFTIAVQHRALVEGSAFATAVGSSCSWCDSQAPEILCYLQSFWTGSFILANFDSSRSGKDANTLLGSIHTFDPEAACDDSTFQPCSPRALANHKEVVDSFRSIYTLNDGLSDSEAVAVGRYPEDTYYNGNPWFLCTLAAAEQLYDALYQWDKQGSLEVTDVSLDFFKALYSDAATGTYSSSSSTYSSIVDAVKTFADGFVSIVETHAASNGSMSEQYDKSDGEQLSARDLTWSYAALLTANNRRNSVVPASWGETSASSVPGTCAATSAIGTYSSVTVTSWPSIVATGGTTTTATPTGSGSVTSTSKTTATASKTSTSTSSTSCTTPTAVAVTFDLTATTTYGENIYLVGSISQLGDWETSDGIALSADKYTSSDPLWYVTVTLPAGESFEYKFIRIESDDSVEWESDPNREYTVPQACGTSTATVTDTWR

[12] = target: T3, Tissue alpha-L-fucosidase (Homo sapiens) (UniProt P04066); assay: Percent inhibition against alpha-L-Fucosidase of human placenta at 1 mM
T3 sequence (whole entry): T1 sequence (P04066 whole entry)

Aspergillus oryzae = assay: Inhibitory activity against Beta-D-galactosidase of Aspergillus oryzae at 1 mM; No inhibition
Rhizopus = assay: Percent inhibition against Amyloglucosidase of Rhizopus mold at 1 mM
[13] = target: T4, Beta-galactosidase (Aspergillus niger) (UniProt P29853); assay: Inhibitory activity against Beta-D-galactosidase of Aspergillus niger at 1 mM; No inhibition
T4 sequence (whole entry): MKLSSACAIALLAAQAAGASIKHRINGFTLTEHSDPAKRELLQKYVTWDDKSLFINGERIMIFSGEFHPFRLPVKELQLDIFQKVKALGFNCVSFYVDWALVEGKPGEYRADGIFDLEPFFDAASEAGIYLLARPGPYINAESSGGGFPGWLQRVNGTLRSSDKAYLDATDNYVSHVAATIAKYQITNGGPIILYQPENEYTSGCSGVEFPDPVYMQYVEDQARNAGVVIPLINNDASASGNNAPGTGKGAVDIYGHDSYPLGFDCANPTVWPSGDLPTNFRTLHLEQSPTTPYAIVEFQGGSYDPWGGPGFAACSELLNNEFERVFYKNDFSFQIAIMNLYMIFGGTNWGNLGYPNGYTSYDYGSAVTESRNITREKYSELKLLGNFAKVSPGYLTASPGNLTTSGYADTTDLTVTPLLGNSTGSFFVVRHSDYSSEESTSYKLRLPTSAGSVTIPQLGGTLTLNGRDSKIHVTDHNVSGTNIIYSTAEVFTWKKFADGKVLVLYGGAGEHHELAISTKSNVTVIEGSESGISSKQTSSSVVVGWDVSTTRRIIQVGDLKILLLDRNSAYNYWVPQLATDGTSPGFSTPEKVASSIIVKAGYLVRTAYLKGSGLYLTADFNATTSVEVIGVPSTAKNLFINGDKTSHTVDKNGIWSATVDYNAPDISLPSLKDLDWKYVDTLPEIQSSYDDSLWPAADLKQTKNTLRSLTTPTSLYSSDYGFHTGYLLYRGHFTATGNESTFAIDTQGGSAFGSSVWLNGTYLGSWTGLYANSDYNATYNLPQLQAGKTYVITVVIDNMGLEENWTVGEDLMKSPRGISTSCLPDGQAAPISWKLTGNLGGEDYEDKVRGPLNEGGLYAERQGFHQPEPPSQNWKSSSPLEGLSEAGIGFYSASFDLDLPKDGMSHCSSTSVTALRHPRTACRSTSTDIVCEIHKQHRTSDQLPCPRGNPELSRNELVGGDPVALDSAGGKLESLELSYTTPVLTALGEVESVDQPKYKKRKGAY

Canavalia ensiformis [14] = assay: Inhibitory activity against Beta-D-galactosidase of Jack bean at 1 mM; No inhibition
[15] = tested on: maltase (Saccharomyces cerevisiae); assay: Inhibitory activity against maltase of yeast at 1 mM; No inhibition
Gallus gallus = species: Gallus gallus; assay: Inhibitory activity against alpha-N-acetylgalactosaminidase of chicken liver at 1 mM; No inhibition
[16] = tested on: Caldicellulosiruptor saccharolyticus; assay: Inhibitory activity against Beta-glucosidase of Caldocellum saccharolyticum at 1 mM; No inhibition
[17] = tested on: Beta-N-acetylglucosaminidase (Canavalia ensiformis); assay: Inhibitory activity against Beta-N-acetylglucosaminidase of Jack bean at 1 mM; No inhibition
Escherichia coli = assay: Inhibitory activity against Alpha-galactosidase of Escherichia coli at 1 mM; No inhibition
Beta-galactosidase = Beta-galactosidase (Bos taurus, UniProt Q58D55); assay: Inhibitory concentration against Beta-D-galactosidase of bovine liver
[18] = Inhibitory concentration against Alpha-mannosidase of Jack bean; set-up: species or system Canavalia ensiformis
[19] = Inhibitory activity against Alpha-mannosidase of Jack bean expressed as Ki; set-up: species or system Canavalia ensiformis
[20] = target: Beta-galactosidase (Escherichia coli) (UniProt Q8VNN2); assay: Inhibitory activity against beta-D-Galactosidase of Escherichia coli at 1 mM; No inhibition

IC50 [1]: 150 µM
inhibition [2]: inactive
inhibition [3]: No inhibition
inhibition [4]: 54%
inhibition [5]: inactive
inhibition (Canavalia ensiformis [6]): 23%
inhibition (maltase (Oryza sativa)): No inhibition
inhibition (Helix pomatia): No inhibition
inhibition (Prunus dulcis [7]): inactive
inhibition [8]: No inhibition
inhibition (Aspergillus niger): No inhibition
inhibition (Coffea arabica): 42%
inhibition (Prunus dulcis [9]): 36%
Ki [10]: 13.8 µM
inhibition [11]: 23%
inhibition [12]: 88%
inhibition (Aspergillus oryzae): No inhibition
inhibition (Rhizopus): 33%
inhibition [13]: No inhibition
inhibition (Canavalia ensiformis [14]): No inhibition
inhibition [15]: No inhibition
inhibition (Gallus gallus): No inhibition
inhibition [16]: No inhibition
inhibition [17]: inactive
inhibition (Escherichia coli): No inhibition
IC50 (Beta-galactosidase): 800 µM
SMILES: COC(=O)c1cc(C2NCC(O)C2O)oc1C (stereo not given)

inhibition [4]: 57%
inhibition (Canavalia ensiformis [6]): 78%
IC50 [18]: 250 µM
Ki [19]: 85 µM
inhibition (Prunus dulcis [9]): 57%
inhibition [20]: inactive
inhibition [11]: 27%
inhibition [13]: inactive
IC50 (Beta-galactosidase): 640 µM
SMILES: Cc1oc(C2NCC(O)C2O)cc1C(=O)OC(C)C (stereo not given)
